In series [1] the test system is human osteosarcoma (HOS cell lines). The series is described as follows: MTT cytotoxicity assay, HOS. In kind it is cell-based. To be noted: for cytotoxicity at 100 µM: 48 h; for IC50: MTT, 0.78–100 µM, ± SD. How it is done: (§1) The synthesized compounds were studied for their cytotoxic activity against several human cancer cell lines, namely human osteosarcoma (HOS cell lines), human breast adenocarcinoma (MDA-MB-231 cell lines), human breast cancer (MCF-7 cell lines), human colorectal adenocarcinoma (Caco-2 cell lines) and human colon cell line (HCT-116 cell lines) using MTT assay at 100 µM, and the results were outlined as shown in Table 1.
(§2) Human osteosarcoma (HOS cell line), human breast adenocarcinoma (MDA-MB-231cell lines), human breast cancer (MCF-7 cell lines), human colorectal adenocarcinoma (Caco2 cell lines), human colon cell line (HCT-116 cell lines), normal human cell lines (BJ-1), and “a telomerase immortalized normal foreskin fibroblast cell line” were obtained from Karolinska Center, Department of Oncology and Pathology, Karolinska Institute and Hospital, Stockholm, Sweden.
(§3) Following culturing for 10 days, the cells were seeded at concentration of 10 × 10^3 cells per well in case of MCF-7 & MDA, 20 × 10^3 cells/well in a fresh complete growth medium in case of HCT-116, Caco2, & HOS and 40 × 10^3 cells/well in case of BJ-1 at 37 °C for 24 h in a water jacketed carbon dioxide incubator. After 48 h’ incubation, the medium was aspirated, and then 40 μl MTT salt (2.5 mg/mL) were added for a further 4 h; 200 μl 10% sodium dodecyl sulphate (SDS) in deionized water were added to each well and incubated overnight at 37 °C. The absorbance was measured at 595 nm with reference 690 nm. Doxorubicin was used as positive control, and 0.5% DMSO was used as negative control. IC50 values were calculated, using a probit analysis, and by utilizing the SPSS computer program (SPSS for Windows, statistical analysis software package/version 9/1989 SPSS Inc., Chicago, IL, USA).

Series [2] concerns human breast adenocarcinoma (MDA-MB-231 cell lines). The series is described as follows: MTT cytotoxicity assay, MDA-MB-231. The series is classed as cell-based. Particulars: for cytotoxicity at 100 µM: MDA-MB-231, 48 h. How it is done:
as §1, §2, §3
In general terms: Tetrazolium dyes change colour on reduction, which living cells bring about.

The subject of series [3] is human breast cancer (MCF-7 cell lines). The series is described as follows: MTT cytotoxicity assay, MCF-7. The series is classed as cell-based. Particulars: MCF7, 48 h. The method, then: as §1, §2, §3
Series [4] concerns human colorectal adenocarcinoma (Caco-2 cell lines). The series is described as follows: MTT cytotoxicity assay, Caco-2. The series is classed as cell-based. To be noted: Caco-2, 48 h. The method, then:
as §1, §2, §3

In series [5] the test system is human colon cell line (HCT-116 cell lines). The series is described as follows: MTT cytotoxicity assay, HCT-116. In kind it is cell-based. To be noted: for cytotoxicity at 100 µM: HCT-116, 48 h. The method, then: as §1, §2, §3
Series [6] deals with normal human skin cell lines BJ-1. The series is described as follows: Safety on normal human skin cells BJ-1 (MTT). To be noted: 100 µM. The series is classed as cell-based. The method, then:
To determine the selectivity and safety, all tested compounds were subjected to an assay for their safety upon normal human skin cell lines BJ-1 at a concentration of 100 µM.
as §2, §3

For the compound `Cn1c(COc2ccc3c(-c4ccccc4)cc(=O)oc3c2)n[nH]c1=S` [Compound 1a], the cytotoxicity at 100 µM came out at 42.5 ± 1.2% in series [1]; 24.1 ± 1.4% in series [2]; 15.6 ± 0.2% in series [3]; 34.8 ± 1.3% in series [4]; 16.8 ± 0.1% in series [5].
In the case of `CCn1c(COc2ccc3c(-c4ccccc4)cc(=O)oc3c2)n[nH]c1=S` [Compound 1b], the cytotoxicity at 100 µM in series [1] came out at 92 ± 2.1%; in series [2] it was 69.7 ± 2.4%; in series [3] it was 88 ± 1.4%; in series [4], 77.7 ± 0.8%; in series [5] it was 81 ± 1.2%. In series [6], the “Toxicity on normal skin cells BJ-1 (in words)” value is reported as “high toxicity”.
On to `CC(=O)OC[C@H]1O[C@@H](Sc2nnc(COc3ccc4c(-c5ccccc5)cc(=O)oc4c3)n2C)[C@H](OC(C)=O)[C@@H](OC(C)=O)[C@H]1OC(C)=O` [Compound 3, 4-Phenyl-7-((4-methyl-5-(1-(2,3,4,6-tetra-O-acetyl-β-D-galactopyranosyl)thio)-4H-1,2,4-triazol-3-yl)methoxy)-2H-chromen-2-one], for which the melting point was in the range of 211 to 213 °C. This compound registered a cytotoxicity at 100 µM in series [1] of 18.4 ± 0.7%. In series [2], this compound returned a cytotoxicity at 100 µM of 15.4 ± 0.5%. For the same compound, in series [3], the cytotoxicity at 100 µM is 9.8 ± 0.6%. In series [4], this compound gave a cytotoxicity at 100 µM of 23.2 ± 1.1%. Also, in series [5], the cytotoxicity at 100 µM is 11.1 ± 0.4%.
In turn, `CC(=O)O[C@@H]1[C@@H](OC(C)=O)[C@H](Sc2nnc(COc3ccc4c(-c5ccccc5)cc(=O)oc4c3)n2C)OC[C@H]1OC(C)=O` [Compound 4, 4-Phenyl-7-((4-methyl-5-(1-(2,3,4-tri-O-acetyl-β-D-xylopyranosyl)thio)-4H-1,2,4-triazol-3-yl)methoxy)-2H-chromen-2-one] registered a melting point of 132 to 133 °C. The same compound yielded a cytotoxicity at 100 µM in series [1] of 45.5 ± 0.6%. Further, in series [2], the cytotoxicity at 100 µM was 36.9 ± 1.2%. The cytotoxicity at 100 µM in series [3] worked out at 17.1 ± 0.3%. Moreover, the cytotoxicity at 100 µM in series [4] came out at 24.9 ± 0.6%. For the same compound, in series [5], the cytotoxicity at 100 µM came to 15 ± 0.6%.
On to `CCn1c(COc2ccc3c(-c4ccccc4)cc(=O)oc3c2)nnc1S[C@@H]1O[C@H](COC(C)=O)[C@H](OC(C)=O)[C@H](OC(C)=O)[C@H]1OC(C)=O` [Compound 5, 4-Phenyl-7-((4-ethyl-5-(1-(2,3,4,6-tetra-O-acetyl-β-D-galactopyranosyl)thio)-4H-1,2,4-triazol-3-yl)methoxy)-2H-chromen-2-one], for which the melting point lay in the range of 151 to 152 °C. Besides, the cytotoxicity at 100 µM in series [1] was determined as 24.9 ± 0.6%. In addition, the cytotoxicity at 100 µM in series [2] worked out at 18.5 ± 0.6%. Further, the cytotoxicity at 100 µM in series [3] was 2.8 ± 0.2%. Moreover, in series [4], the cytotoxicity at 100 µM is 20.6 ± 0.3%. The cytotoxicity at 100 µM in series [5] came out at 7.6 ± 0.2%.
Take `CCn1c(COc2ccc3c(-c4ccccc4)cc(=O)oc3c2)nnc1S[C@@H]1OC[C@@H](OC(C)=O)[C@H](OC(C)=O)[C@H]1OC(C)=O` [Compound 6, 4-Phenyl-7-((4-ethyl-5-(1-(2,3,4-tri-O-acetyl-β-D-xylopyranosyl)thio)-4H-1,2,4-triazol-3-yl)methoxy)-2H-chromen-2-one]: the melting point is 127 to 128 °C. In addition, the cytotoxicity at 100 µM in series [1] was determined as 33.1 ± 0.2%. Also, the cytotoxicity at 100 µM in series [2] worked out at 7.4 ± 0.3%. Besides, the cytotoxicity at 100 µM in series [3] turned out to be 14.3 ± 0.1%. Also, the cytotoxicity at 100 µM in series [4] came to 30.1 ± 0.1%. Also, the cytotoxicity at 100 µM in series [5] stood at 18.9 ± 0.6%.
For `Cn1c(COc2ccc3c(-c4ccccc4)cc(=O)oc3c2)nnc1S[C@@H]1O[C@H](CO)[C@H](O)[C@H](O)[C@H]1O` [Compound 7, 4-Phenyl-7-((4-methyl-5-(1-(β-D-galactopyranosyl)thio)-4H-1,2,4-triazol-3-yl)methoxy)-2H-chromen-2-one], the cytotoxicity at 100 µM in series [1] was determined as 7.3 ± 0.3%; in series [2], 15.5 ± 1.1%; in series [3], 14.3 ± 0.2%; in series [4] it was 35.7 ± 0.3%; in series [5] it was 16.6 ± 0.8%.
Turning to `CCn1c(COc2ccc3c(-c4ccccc4)cc(=O)oc3c2)nnc1S[C@@H]1O[C@H](CO)[C@H](O)[C@H](O)[C@H]1O` [Compound 9, 4-Phenyl-7-((4-ethyl-5-(1-(β-D-galactopyranosyl)thio)-4H-1,2,4-triazol-3-yl)meth-oxy)-2H-chromen-2-one], the melting point was in the range of 184 to 185 °C. The cytotoxicity at 100 µM in series [1] came out at 20.4 ± 0.4%. The cytotoxicity at 100 µM in series [2] was determined as 27.7 ± 0.4%. In addition, the cytotoxicity at 100 µM in series [3] worked out at 37.8 ± 0.3%. The compound also gave a cytotoxicity at 100 µM in series [4] of 1.7 ± 0.1%. The compound also had a cytotoxicity at 100 µM in series [5] of 22.7 ± 0.9%.
On to `Cn1c(COc2ccc3c(-c4ccccc4)cc(=O)oc3c2)nnc1SCC(O)CO` (stereo not drawn) [Compound 13, 4-Phenyl-7-((5-((2,3-dihydroxypropyl)thio)-4-methyl-4H-1,2,4-triazol-3-yl)meth-oxy)-2H-chromen-2-one], for which the melting point lay within 170 to 171 °C. This compound also came in with a cytotoxicity at 100 µM in series [1] of 2.8 ± 0.2%. The compound also returned a cytotoxicity at 100 µM in series [2] of 0%. In series [3], this compound showed a cytotoxicity at 100 µM of 51.9 ± 0.2%. This compound also yielded a cytotoxicity at 100 µM in series [4] of 16.6 ± 0.7%. In series [5], this compound gave a cytotoxicity at 100 µM of 26.1 ± 0.3%.
Consider `O=c1cc(-c2ccccc2)c2ccc(O)cc2o1` [Compound 15, 7-hydroxy-4-phenyl-2H-chromen-2-one], for which the cytotoxicity at 100 µM in series [1] is 62.7 ± 1.5%; in series [2], 34.5 ± 0.4%; in series [3], 36.8 ± 1.1%; in series [4] it was 46.1 ± 0.6%; in series [5] it was 89.3 ± 0.7%. Besides, the IC50 in series [1] came to 88.3 ± 2.2 µM; in series [5] (HCT-116, MTT, 0.78–100 µM, ± SD), 46 ± 2.2 µM.
In turn, `O=c1cc(-c2ccccc2)c2ccc(OCCCI)cc2o1` [Compound 16, 7-(3-Iodopropoxy)-4-phenyl-2H-chromen-2-one] came in with a melting point of 130 to 131 °C. In series [1], this compound returned a cytotoxicity at 100 µM of 91.2 ± 2.2% and an IC50 of 26.2 ± 1.4 µM. Moreover, in series [2], the cytotoxicity at 100 µM was found to be 88.3 ± 1.4%. In addition, in series [2] (MDA-MB-231, MTT, 0.78–100 µM, ± SD), 39.5 ± 0.9 µM corresponded to half-maximal inhibition (IC50). Further, the cytotoxicity at 100 µM in series [3] worked out at 35.6 ± 0.8%. Also, the cytotoxicity at 100 µM in series [4] was found to be 54.3 ± 0.4%. In series [5], this compound returned a cytotoxicity at 100 µM of 12.8 ± 1.1%.
Regarding `O=c1cc(-c2ccccc2)c2ccc(OCCCCI)cc2o1` [Compound 17, 7-(4-Iodobutoxy)-4-phenyl-2H-chromen-2-one], the melting point was 143 to 145 °C. Also, the cytotoxicity at 100 µM in series [1] was 50.8 ± 0.7%. Besides, the cytotoxicity at 100 µM in series [2] worked out at 7.7 ± 0.4%. In series [3], this compound had a cytotoxicity at 100 µM of 38.5 ± 1.2%. Moreover, in series [4], the cytotoxicity at 100 µM was 34.3 ± 0.3%. The compound further had a cytotoxicity at 100 µM in series [5] of 38.2 ± 0.7%.
Turning to `[N-]=[N+]=NCCCOc1ccc2c(-c3ccccc3)cc(=O)oc2c1` [Compound 18, 7-(3-Azidopropoxy)-4-phenyl-2H-chromen-2-one], the melting point was in the range of 110 to 111 °C.
Compound `[N-]=[N+]=NCCCCOc1ccc2c(-c3ccccc3)cc(=O)oc2c1` [Compound 19, 7-(4-Azidobutoxy)-4-phenyl-2H-chromen-2-one] yielded a melting point of 114 to 116 °C.
`CC(=O)OC[C@H]1O[C@@H](OCc2cn(CCCCOc3ccc4c(-c5ccccc5)cc(=O)oc4c3)nn2)[C@H](OC(C)=O)[C@@H](OC(C)=O)[C@H]1OC(C)=O` [Compound 23]: the melting point lay within 118 to 119 °C. This compound also had a cytotoxicity at 100 µM in series [1] of 0%. Moreover, the cytotoxicity at 100 µM in series [2] turned out to be 28.6 ± 0.2%. Besides, the cytotoxicity at 100 µM in series [3] was found to be 35.2 ± 0.3%. The compound further gave a cytotoxicity at 100 µM in series [4] of 13.6 ± 0.4%. This compound also registered a cytotoxicity at 100 µM in series [5] of 30.4 ± 0.7%.

Usually melting point stands for the temperature of the solid-liquid transition. For orientation: IC50 means the concentration that inhibits the measured activity by half.

(Values after article PMC9458111, “New 1,2,3-Triazole-Coumarin-Glycoside Hybrids and Their 1,2,4-Triazolyl Thioglycoside Analogs Targeting Mitochondria Apoptotic Pathway: Synthesis, Anticancer Activity and Docking Simulation” (Molecules, 2022).)
